Legend:
[1] = system: non-cancerous human lung fibroblast cells (WI-38 & WI-26 VA4); experiment: MTT assay, non-cancerous human lung fibroblast cells (summary statement); format: cell-based; conditions: WI-38 & WI-26 VA4 cells
Source text: 3,3′-Disclenodipropionic acid-D8 (D-DSePA, chemical structure shown in FIG. 1) was synthesized by reacting freshly prepared sodium selenide (Na2Se2) and 3-bromopropionic acid-D4 in D2O solvent with 42% yield. The synthesized D-DSePA was purified and characterized by NMR spectroscopy and mass spectrometry. The molecular structure of D-DSePA has been established by single-crystal X-ray diffraction analysis. The treatment of D-DSePA and un-deuterated DSePA inhibited the growth of human NSCLC cells such as A549, H1975 and H3122 with half maximum concentration (IC50) in the range of 5-50 μM by MTT assay. […] Finally, at identical treatment concentration, D-DSePA offered better radioprotection to non-cancerous WI38 cells with a dose modification factor (DMF) of 1.16±0.05 as compared to un-deuterated DScPA with DMF of 1.12±0.03.
MTT Assay—To evaluate the anti-proliferative effect of D-DScPA and DScPA, Cells (˜5×10^3) suspended in 100 μl of complete culture medium were seeded in each well of 96 well plates. […] The percentage (%) cytotoxicity was calculated from the decrease in absorbance at 570 nm of treated groups as compared to that of control group. […] The therapeutic index was calculated by normalizing the IC50 concentration of D-DSePA/DSePA in non-cancerous cells to that in cancerous cells.

[2] = system: WI-38 cells; experiment: Clonogenic assay, radioprotection of WI-38 cells against γ-irradiation; format: cell-based, human; conditions: γ-irradiation 2-12 Gy
Description: Further, clonogenic assay is considered as the gold standard method for evaluating the anticancer activity of any compound and is also a good indicator of the in vivo efficacy of any anticancer compound. Therefore, the therapeutic index of DSePA and D-DSePA in A549/WI-38 cells was also validated by employing the clonogenic assay. For this, A549/WI-38 cells were treated with the varying concentrations (0.1-2 μM)/(1-500 μM) of DSePA/D-DSePA for seven days and the survival fraction was calculated by counting the number of surviving clones (FIG. 11A). The plot of survival fraction verses the concentration of DScPA/D-DSCPA was used to estimate the IC50 of above compounds to inhibit the growth of A549/WI-38 cells. […] This clearly confirmed that deuteration of DScPA reduced its toxicity in normal cells without compromising its efficacy in cancer cells. Since anticancer agents are intended to be used in combination with radiation, DSePA/D-DSePA at a treatment concentration of 0.5 μM (dose close to IC50 as determined by clonogenic assay) was combined with varying absorbed doses (2-8 Gy) of γ-irradiation and the effect of combinatorial treatment on the viability of A549 cells was determined by clonogenic assay (FIG. 12A & 12B). For this, A549 cells exposed to the varying absorbed doses (2-8 Gy) of γ-radiation were immediately treated with DScPA/D-DScPA and cultured for seven days prior to clonogenic assay. […] The D10 value of the combinatorial treatment involving DScPA estimated was 4.5 Gy (FIG. 12B). […]
(§1) Clonogenic assay—Clonogenic assay was performed according to the method reported previously. […] After 7 days, colonies were fixed with absolute methanol for 5 min, stained with 0.5% crystal violet for 5 min, washed with distilled water to remove excess stain and counted manually under a stereo microscope. […] The plating efficiency and the survival fraction under irradiated and drug treated conditions were calculated using following formulae: […]
(§2) The plating efficiency of A549 and WI38 cells was calculated by seeding ˜300 and ˜500 cells respectively. […]

[3] = system: lung cancer cell lines (A549, H1975 and H3122) versus normal lung cells (WI-38 and WI-26 VA4); experiment: Therapeutic index by MTT assay, lung cancer cell lines versus normal lung cells; format: cell-based, human; conditions: for Therapeutic Index (IC50 in normal cell / IC50 in cancer cells): 48 h post-treatment
Description: Therefore, D-DSePA was compared with un-deuterated DSePA for its anticancer activity in A549, H1975 and H3122 cell lines which are representative of NSCLC. For this, above cells were treated with the varying concentrations (0.1-100 μM) of DSePA/D-DSePA for 48 h and the cell viability was determined by MTT assay (FIG. 9A-C). The plot of percent (%) cytotoxicity (100-% viability) versus the concentration of DSePA/D-DSePA was used to estimate the half maximum concentration (IC50) of above compounds to inhibit the proliferation of cells. […] Similarly, the toxicity of DSePA/D-DSePA was studied in non-cancerous lung fibroblast cells, WI-38 and WI-26 VA4 in the concentration range of 0.1 to 1000 μM at 48 h post treatment by MTT assay (FIG. 9D and 9E). […] Employing these values, the therapeutic index (IC50 in normal lung cell/IC50 in lung cancer cell) of DSePA and D-DSePA in different pairs of normal versus cancerous cells (viz., A549/WI-38, A549/WI-26 VA4, H1975/WI-38, H1975/WI-26 VA4, H3122/WI-38 and H3122/WI-26 VA4) was calculated (Table-3). […] The average therapeutic index of DSePA and D-DSePA estimated from above study was 11.05±1.5 and 78.7±29.2 respectively (FIG. 10).
MTT Assay—To evaluate the anti-proliferative effect of D-DScPA and DScPA, Cells (˜5×10^3) suspended in 100 μl of complete culture medium were seeded in each well of 96 well plates. The cells were allowed to attach and grow for 24 h, treated with desired concentrations of D-DSePA/DScPA dissolved in culture medium for 48 h and then processed for MTT assay as described in literature. The percentage (%) cytotoxicity was calculated from the decrease in absorbance at 570 nm of treated groups as compared to that of control group. The % cytotoxicity was plotted as a function of the concentration of D-DSePA and DSePA and from this curve, the concentration of D-DSePA/DScPA causing 50% toxicity (IC50) was estimated. The therapeutic index was calculated by normalizing the IC50 concentration of D-DSePA/DSePA in non-cancerous cells to that in cancerous cells.

[4] = system: A549 cells; experiment: Clonogenic assay, combinatorial treatment with γ-irradiation in A549 cells; format: cell-based, human
Description: Further, clonogenic assay is considered as the gold standard method for evaluating the anticancer activity of any compound and is also a good indicator of the in vivo efficacy of any anticancer compound. Therefore, the therapeutic index of DSePA and D-DSePA in A549/WI-38 cells was also validated by employing the clonogenic assay. For this, A549/WI-38 cells were treated with the varying concentrations (0.1-2 μM)/(1-500 μM) of DSePA/D-DSePA for seven days and the survival fraction was calculated by counting the number of surviving clones (FIG. 11A). The plot of survival fraction verses the concentration of DScPA/D-DSCPA was used to estimate the IC50 of above compounds to inhibit the growth of A549/WI-38 cells. […] This clearly confirmed that deuteration of DScPA reduced its toxicity in normal cells without compromising its efficacy in cancer cells. Since anticancer agents are intended to be used in combination with radiation, DSePA/D-DSePA at a treatment concentration of 0.5 μM (dose close to IC50 as determined by clonogenic assay) was combined with varying absorbed doses (2-8 Gy) of γ-irradiation and the effect of combinatorial treatment on the viability of A549 cells was determined by clonogenic assay (FIG. 12A & 12B). For this, A549 cells exposed to the varying absorbed doses (2-8 Gy) of γ-radiation were immediately treated with DScPA/D-DScPA and cultured for seven days prior to clonogenic assay. […] The D10 value of the combinatorial treatment involving DScPA estimated was 4.5 Gy (FIG. 12B). Similarly, D10 value of the combinatorial treatment involving D-DSePA estimated was 4 Gy. From these values, the dose modification factor (DMF or the ratio of the D10 of combinatorial treatment to that of D10 of radiation) of DScPA and D-DScPA estimated was 0.87±0.01 and 0.83±0.02 respectively. […] While the objective of radiotherapy is to achieve tumor control, it is also known to cause normal tissue toxicity. Previously, DSePA has been reported to protect normal cells from lethal effects of γ-radiation. Thus radio-protective activity of D-DSePA was compared with DScPA in terms of their abilities to protect non-cancerous lung fibroblast (WI-38) cells against γ-irradiation induced cell death. For this, WI-38 cells were pretreated with DSePA/D-DScPA for 24 h at an identical concentration of 0.5 μM (close to IC50 required to inhibit growth of A549 lung cancer cells by clonogenic assay) and then exposed to varying doses (2-12 Gy) of γ-irradiation. The survival of cells against radiation exposure was estimated by clonogenic assay and the dose response curve was prepared in the presence and absence of drug (DSePA/D-DScPA) (FIG. 12C & 12D). By using this dose response curve, the dose modification factor (DMF or the ratio of the D10 of radiation plus drug and D10 of radiation alone) of DSePA and D-DSePA estimated was 1.12±0.03 and 1.16±0.05 respectively.
as §1, §2

[2H]C([2H])([Se][Se]C([2H])([2H])C([2H])([2H])C(=O)O)C([2H])([2H])C(=O)O [D-DSePA, 3,3′-diselenodipropionic acid-D8]
IC50 higher as compared to un-deuterated DSePA [1]: 4 to 5 times | dose modification factor (DMF, D10 of radiation plus drug / D10 of radiation alone) ([2]; WI-38 cells pretreated 24 h with 0.5 μM drug, clonogenic assay): 1.16±0.05 | radioprotective activity in normal lung cells ([2]; WI-38 cells, 0.5 μM 24 h pre-treatment): exhibited radioprotective activity in normal lung cells | Therapeutic Index (IC50 in normal cell / IC50 in cancer cells) ([3]; A549/WI-26 VA4, MTT assay): 36.2 ± 1.9 | Therapeutic Index (IC50 in normal cell / IC50 in cancer cells) ([3]; A549/WI-38, MTT assay): 65.7 ± 3.3 | Therapeutic Index (IC50 in normal cell / IC50 in cancer cells) ([3]; H1975/WI-26 VA4, MTT assay): 119.6 ± 5.9 | Therapeutic Index (IC50 in normal cell / IC50 in cancer cells) ([3]; H1975/WI-38, MTT assay): 217.4 ± 10.9 | Therapeutic Index (IC50 in normal cell / IC50 in cancer cells) ([3]; H3122/WI-26 VA4, MTT assay): 11.8 ± 0.6 | Therapeutic Index (IC50 in normal cell / IC50 in cancer cells) ([3]; H3122/WI-38, MTT assay): 21.5 ± 1.0 | average therapeutic index ([3]; mean of six normal/cancer cell pairs, mean±SEM (n=6), MTT assay): 78.7±29.2 | higher therapeutic index as compared to un-deuterated DSePA ([3]; non-cancerous lung fibroblast versus NSCLC (A549, H1975 and H3122)): ~7 folds | dose modification factor (DMF, D10 of combinatorial treatment / D10 of radiation) ([4]; 0.5 μM drug immediately after γ-radiation (2-8 Gy)): 0.83±0.02 | effect on radiation kill of lung cancer cells ([4]; 0.5 μM with γ-radiation 2-8 Gy): did not protect lung cancer cells from radiation kill | D10 value (decimal reduction dose) of the combinatorial treatment ([4]; γ-radiation 2-8 Gy then 0.5 μM drug immediately, seven days, radiation alone D10 5 Gy): 4 Gy
